{
  "source": "patent US5168102A",
  "about": "“Endocrine manipulation to improve body composition of poultry” (priority 1990, dated 1992)",
  "key": {"[1]": {"assay": "Example 2: final body weight, liver, abdominal fat and body composition", "assay_type": "in vivo, broiler cockerels (Ross X Arbor Acre)", "method": "(§1) Forty-eight 3-week-old broiler cockerels (Ross X Arbor Acre) were randomly divided into four treatment groups that contained three pens of four birds. The birds were housed in a controlled-environment room under a 20 hour light/4 hour dark cycle with feed and water provided ad libitum.\n(§2) The preparation of ncGH used in this study was from the same lot used in Example 1.\n(§3) Body weights and feed consumption was determined at weekly intervals although the ADG, ADFC and FTG ratio was determined over the 21 day period. […] At the conclusion of the study (6 weeks-of-age), birds were killed and the abdominal fat removed and weighed. The liver and abdominal fat were returned to the carcass which was frozen for proximate analysis as described in […]"}, "[2]": {"conditions": "exogenous; cited from earlier work"}, "[3]": {"assay": "Example 2: growth and feed efficiency, dietary T3 and ncGH injection", "assay_type": "in vivo, broiler cockerels (Ross X Arbor Acre)", "method": "as §1, §2, §3"}, "[4]": {"assay": "Example 3: growth performance, graded doses of dietary T3", "assay_type": "in vivo, broiler cockerels", "conditions": "for Average Daily Gain: week no. 5 to 7", "method": "Day-old broiler cockerels were randomly assigned to 24 pens (5 birds/pen) in a battery brooder. The total duration of the bird management period lasted from 7 to 8 weeks. Hereafter, the end of the first week of life of the birds is referred to as week no. 1 (i.e. 7 days of life), the end of the second week as week no. 2, etc. At week no. 3, four birds from each pen were transferred to wire grow-out cages. […] 5 to week no. 7 (4 pens/treatment). Body weight and feed consumption were determined at weekly intervals. A 5 ml blood sample was obtained from each bird at week no. 7 and stored at -20° C. until assayed for plasma hormones.\nData were analyzed by analysis of variance for a randomized complete-block design. Data for ADG, ADFC and FTG were based on pen average. Unless otherwise indicated, data used for analysis was obtained from individual birds. Difference among treatments were tested by Fisher's protected LSD method."}, "[5]": {"assay": "Example 2: plasma hormone concentrations", "assay_type": "in vivo, broiler cockerels (Ross X Arbor Acre)", "conditions": "vs CF+BI or CF+GH treatment", "method": "as §1, §2, §3"}, "[6]": {"conditions": "plasma thyroid hormone bioactivity 360-1200% of normal"}},
  "data": [
    {"smiles": "N[C@@H](Cc1cc(I)c(Oc2ccc(O)c(I)c2)c(I)c1)C(=O)O", "note": "[T3, 3,3',5-triiodo-L-thyronine]", "values": [
      {"measurement": "body fat content (% BW), reduction", "setting": "[1]; 1 ppm T3, with or without ncGH", "result": 16, "unit": "%"},
      {"measurement": "abdominal fat content, reduction", "setting": "[1]; 1 ppm T3, with or without ncGH (P<0.05)", "result": 28, "unit": "%"},
      {"measurement": "Body Weight (BW), final", "setting": "[1]; 1 ppm T3 and/or ncGH 100 μg/kg/day, 6 weeks-of-age, N = 12", "result": "1.86 ± .048 kg"},
      {"measurement": "Abdominal Fat, relative weight", "setting": "[1]; N = 12", "result": "1.86 ± .396 % BW"},
      {"measurement": "Body composition: Ash", "setting": "[1]; N = 12", "result": "2.40 ± .054 % BW"},
      {"measurement": "Body composition: Fat", "setting": "[1]; N = 12", "result": "13.2 ± .62 % BW"},
      {"measurement": "Body composition: Protein", "setting": "[1]; N = 12", "result": "17.3 ± .36 % BW"},
      {"measurement": "Body composition: Water", "setting": "[1]; N = 12", "result": "65.5 ± .60 % BW"},
      {"measurement": "Liver, relative weight", "setting": "[1]; N = 12", "result": "2.54 ± .096 % BW"},
      {"measurement": "effect on body water and ash contents", "setting": "[1]; in vivo", "result": "increased"},
      {"measurement": "growth deficit of hypophysectomized chickens", "setting": "[2]", "result": "correct the growth deficit"},
      {"measurement": "ADFC", "setting": "[3]; 1 ppm T3 and/or ncGH 100 μg/kg/day, 21 days", "result": "117.9 ± 0.8", "unit": "g/bird/day"},
      {"measurement": "ADG", "setting": "[3]; 1 ppm T3 in feed and/or ncGH 100 μg/kg/day i.m., 3 to 6 weeks, mean ±SEM of 3 pens", "result": "52.6 ± 1.0", "unit": "g/bird/day"},
      {"measurement": "effect on ADG, ADFC and FTG ratio", "setting": "[3]; 21 days", "result": "not affected"},
      {"measurement": "effect on ADFC and GTF", "setting": "[4]; 0.25 and 1.0 ppm", "result": "did not affect the ADFC and GTF"},
      {"measurement": "effect on ADG", "setting": "[4]; 0.25 ppm", "result": "the decrease in 0.25 ppm-fed birds was not significant"},
      {"measurement": "Average Daily Feed Consumption", "setting": "[4]; 0.25 ppm of feed", "result": "150.2 ± 10.0", "unit": "g"},
      {"measurement": "Gain-To-Feed Ratio", "setting": "[4]; 0.25 ppm of feed", "result": "0.441 ± .014"},
      {"measurement": "Average Daily Gain", "setting": "[4]; 0.25 ppm of feed", "result": "66.5 ± 6.0", "unit": "g"},
      {"measurement": "Average Daily Feed Consumption", "setting": "[4]; 1.0 ppm of feed", "result": "139.0 ± 4.6", "unit": "g"},
      {"measurement": "Gain-To-Feed Ratio", "setting": "[4]; 1.0 ppm of feed", "result": "0.409 ± 0.01"},
      {"measurement": "Average Daily Gain", "setting": "[4]; 1.0 ppm of feed", "result": "57.0 ± 3.0", "unit": "g"},
      {"measurement": "ADFC, reduction", "setting": "[4]; 4.0 ppm (p<0.05)", "result": 35, "unit": "%"},
      {"measurement": "gain to feed ratio (GTF), reduction", "setting": "[4]; 4.0 ppm (p<0.05)", "result": 33, "unit": "%"},
      {"measurement": "Average Daily Feed Consumption", "setting": "[4]; 4.0 ppm of feed", "result": "99.5 ± 1.7", "unit": "g"},
      {"measurement": "Gain-To-Feed Ratio", "setting": "[4]; 4.0 ppm of feed", "result": "0.302 ± .013"},
      {"measurement": "Average Daily Gain", "setting": "[4]; 4.0 ppm of feed", "result": "30.0 ± 1.1", "unit": "g"},
      {"measurement": "body weight gain, depression", "setting": "[4]; [6]", "result": "≤ 57", "unit": "%"},
      {"measurement": "feed consumption, depression", "setting": "[4]; [6]", "result": "≤ 35", "unit": "%"},
      {"measurement": "average plasma T3 level, fold higher", "setting": "[5]", "result": 2.3, "unit": "times"}
    ]}
  ]
}
